From patent US6875425B2, “Skin lightening agents, compositions and methods” (Unilever Home & Personal Care USA, priority 2002, dated 2005) come the findings set out here.

The experiment relates to mushroom tyrosinase. As to the kind of experiment: Mushroom Tyrosinase Assay. The class given is biochemical. Particulars: for % of Control (Melanin Synthesis): L-DOPA substrate, slope of 475-nm absorbency vs. ethanol control. As for the experimental part: Mushroom tyrosinase inhibition is indicative of reduction in melanin synthesis, thereby showing skin lightening effect. […] Following an initial measurement of background absorbency at 475-nm, 20 microliters of mushroom tyrosinase (Sigma T-7755; 6050 units/ml) was added and incubated at room temperature. Absorbency is read at 475-nm over the following time points: 0, 2, 4, and 6.5 minutes. The data is plotted as 475-nm absorbency vs. time (minutes) and the slope of the line is calculated (ΔAbs 475nm/min). Values are expressed as the percentage of the respective untreated ethanol control reaction. [formula]

As for `CCc1ccc(O)cc1O` [4-Ethyl Resorcinol], the “% of Control (Melanin Synthesis)” value by setting is: (0.1 uM compound) 73 % of Control; (1 uM compound) 46 % of Control; (10 uM compound) 31 % of Control; (100 uM compound) 21 % of Control.

Turning to `Oc1ccc(C2SCCCS2)c(O)c1` [1,3-di-Thiane Resorcinol], the “% of Control (Melanin Synthesis)” value is, setting by setting: (0.1 uM compound) 87 % of Control; (1 uM compound) 57 % of Control; (10 uM compound) 48 % of Control; (100 uM compound) 47 % of Control.

With `Oc1cccc(O)c1` [Resorcinol], the “% of Control (Melanin Synthesis)” value is, setting by setting: (0.1 uM compound) 97 % of Control; (1 uM compound) 98 % of Control; (10 uM compound) 98 % of Control; (100 uM compound) 100 % of Control. The “activity in the mushroom tyrosinase assay (in words)” value (summary of Table 8) is “does not display activity”.
